{"source": "paper PMC5988656", "about": "“Phase I studies of AZD1208, a proviral integration Moloney virus kinase inhibitor in solid and haematological cancers” (British Journal of Cancer, 2018)", "tested_on": "patients with advanced solid tumours", "assay": "Solid tumour dose-escalation study: safety and tolerability (AEs, DLTs)", "from_the_text": "Conducted at two UK centres and one in Japan. Dose escalation followed a rolling six design.[14] Patients received a single dose on Day 1 during Cycle 0, followed by a 3-day washout period, after which multiple dosing was initiated. Cycle 1 was a 21-day period from the first dose of multiple dosing.\nThe CTCAE (version 4.0) was utilised to grade all AE events.\nAEs were summarised by Medical Dictionary for Regulatory Activities (MedDRA) system organ class, MedDRA preferred term and CTCAE grade. Summary statistics of mean, median, standard deviation, minimum, maximum and number of observations were used."}
{"molecule": "N[C@@H]1CCCN(c2c(/C=C3\\SC(=O)NC3=O)cccc2-c2ccccc2)C1", "note": "[AZD1208]", "values": [{"measurement": "White blood cell count decreased (all-grade AE)", "setting": "540 mg, n = 7", "value": "2 (28.6) n (%)"}, {"measurement": "Patients requiring dose interruptions because of AEs", "setting": "700 mg", "value": 3, "unit": "n"}, {"measurement": "Patients with CTCAE grade ≥3 AEs causally related to AZD1208", "setting": "700 mg (nausea, fatigue)", "value": 1, "unit": "n"}, {"measurement": "Anaemia (all-grade AE)", "setting": "700 mg, n = 6", "value": "3 (50.0) n (%)"}, {"measurement": "Constipation (all-grade AE)", "setting": "700 mg, n = 6", "value": "2 (33.3) n (%)"}, {"measurement": "Decreased appetite (all-grade AE)", "setting": "700 mg, n = 6", "value": "2 (33.3) n (%)"}, {"measurement": "Diarrhoea (all-grade AE)", "setting": "700 mg, n = 6", "value": "5 (83.3) n (%)"}, {"measurement": "Dry skin (all-grade AE)", "setting": "700 mg, n = 6", "value": "1 (16.7) n (%)"}, {"measurement": "Dyspnoea (all-grade AE)", "setting": "700 mg, n = 6", "value": "0 (0.0) n (%)"}, {"measurement": "Fatigue (all-grade AE)", "setting": "700 mg, n = 6", "value": "4 (66.7) n (%)"}, {"measurement": "GGT increased (all-grade AE)", "setting": "700 mg, n = 6", "value": "0 (0.0) n (%)"}, {"measurement": "Hyperglycaemia (all-grade AE)", "setting": "700 mg, n = 6", "value": "0 (0.0) n (%)"}, {"measurement": "Hypoalbuminaemia (all-grade AE)", "setting": "700 mg, n = 6", "value": "3 (50.0) n (%)"}, {"measurement": "Hypokalaemia (all-grade AE)", "setting": "700 mg, n = 6", "value": "1 (16.7) n (%)"}, {"measurement": "Hyponatraemia (all-grade AE)", "setting": "700 mg, n = 6", "value": "1 (16.7) n (%)"}, {"measurement": "Insomnia (all-grade AE)", "setting": "700 mg, n = 6", "value": "0 (0.0) n (%)"}, {"measurement": "Musculoskeletal chest pain (all-grade AE)", "setting": "700 mg, n = 6", "value": "1 (16.7) n (%)"}, {"measurement": "Nausea (all-grade AE)", "setting": "700 mg, n = 6", "value": "5 (83.3) n (%)"}, {"measurement": "Patients with any AE (all-grade AE)", "setting": "700 mg, n = 6", "value": "6 (100.0) n (%)"}, {"measurement": "Platelet count decreased (all-grade AE)", "setting": "700 mg, n = 6", "value": "1 (16.7) n (%)"}, {"measurement": "Pyrexia (all-grade AE)", "setting": "700 mg, n = 6", "value": "2 (33.3) n (%)"}, {"measurement": "Thrombocytopenia (all-grade AE)", "setting": "700 mg, n = 6", "value": "1 (16.7) n (%)"}, {"measurement": "Vomiting (all-grade AE)", "setting": "700 mg, n = 6", "value": "4 (66.7) n (%)"}, {"measurement": "White blood cell count decreased (all-grade AE)", "setting": "700 mg, n = 6", "value": "1 (16.7) n (%)"}, {"measurement": "Patients requiring dose interruptions because of AEs", "setting": "800 mg", "value": 2, "unit": "n"}, {"measurement": "Patients with CTCAE grade ≥3 AEs causally related to AZD1208", "setting": "800 mg (fatigue, hyperglycaemia)", "value": 3, "unit": "n"}, {"measurement": "Tolerability", "setting": "800 mg QD", "value": "not tolerated"}, {"measurement": "Abdominal pain (all-grade AE)", "setting": "800 mg, n = 6", "value": "0 (0.0) n (%)"}, {"measurement": "Anaemia (all-grade AE)", "setting": "800 mg, n = 6", "value": "2 (33.3) n (%)"}, {"measurement": "Constipation (all-grade AE)", "setting": "800 mg, n = 6", "value": "0 (0.0) n (%)"}, {"measurement": "DLT detail, action taken", "setting": "800 mg, n = 6", "value": "Fatigue, drug interrupted; fatigue, drug interrupted"}, {"measurement": "Decreased appetite (all-grade AE)", "setting": "800 mg, n = 6", "value": "3 (50.0) n (%)"}, {"measurement": "Diarrhoea (all-grade AE)", "setting": "800 mg, n = 6", "value": "6 (100.0) n (%)"}, {"measurement": "Dry skin (all-grade AE)", "setting": "800 mg, n = 6", "value": "0 (0.0) n (%)"}, {"measurement": "Dyspnoea (all-grade AE)", "setting": "800 mg, n = 6", "value": "0 (0.0) n (%)"}, {"measurement": "Fatigue (all-grade AE)", "setting": "800 mg, n = 6", "value": "5 (83.3) n (%)"}, {"measurement": "GGT increased (all-grade AE)", "setting": "800 mg, n = 6", "value": "1 (16.7) n (%)"}, {"measurement": "Hyperglycaemia (all-grade AE)", "setting": "800 mg, n = 6", "value": "2 (33.3) n (%)"}, {"measurement": "Hypoalbuminaemia (all-grade AE)", "setting": "800 mg, n = 6", "value": "0 (0.0) n (%)"}, {"measurement": "Hypokalaemia (all-grade AE)", "setting": "800 mg, n = 6", "value": "1 (16.7) n (%)"}, {"measurement": "Hyponatraemia (all-grade AE)", "setting": "800 mg, n = 6", "value": "0 (0.0) n (%)"}, {"measurement": "Insomnia (all-grade AE)", "setting": "800 mg, n = 6", "value": "1 (16.7) n (%)"}, {"measurement": "Musculoskeletal chest pain (all-grade AE)", "setting": "800 mg, n = 6", "value": "0 (0.0) n (%)"}, {"measurement": "Nausea (all-grade AE)", "setting": "800 mg, n = 6", "value": "4 (66.7) n (%)"}, {"measurement": "Patients with any AE (all-grade AE)", "setting": "800 mg, n = 6", "value": "6 (100.0) n (%)"}, {"measurement": "Platelet count decreased (all-grade AE)", "setting": "800 mg, n = 6", "value": "1 (16.7) n (%)"}, {"measurement": "Pyrexia (all-grade AE)", "setting": "800 mg, n = 6", "value": "0 (0.0) n (%)"}, {"measurement": "Thrombocytopenia (all-grade AE)", "setting": "800 mg, n = 6", "value": "1 (16.7) n (%)"}, {"measurement": "Vomiting (all-grade AE)", "setting": "800 mg, n = 6", "value": "3 (50.0) n (%)"}, {"measurement": "White blood cell count decreased (all-grade AE)", "setting": "800 mg, n = 6", "value": "0 (0.0) n (%)"}, {"measurement": "Abdominal pain (all-grade AE)", "setting": "Total N = 35", "value": "8 (22.9) n (%)"}, {"measurement": "Anaemia (all-grade AE)", "setting": "Total N = 35", "value": "18 (51.4) n (%)"}, {"measurement": "Constipation (all-grade AE)", "setting": "Total N = 35", "value": "5 (14.3) n (%)"}, {"measurement": "Decreased appetite (all-grade AE)", "setting": "Total N = 35", "value": "15 (42.9) n (%)"}, {"measurement": "Diarrhoea (all-grade AE)", "setting": "Total N = 35", "value": "29 (82.9) n (%)"}, {"measurement": "Dry skin (all-grade AE)", "setting": "Total N = 35", "value": "7 (20.0) n (%)"}, {"measurement": "Dyspnoea (all-grade AE)", "setting": "Total N = 35", "value": "4 (11.4) n (%)"}, {"measurement": "Fatigue (all-grade AE)", "setting": "Total N = 35", "value": "17 (48.6) n (%)"}, {"measurement": "GGT increased (all-grade AE)", "setting": "Total N = 35", "value": "6 (17.1) n (%)"}, {"measurement": "Hyperglycaemia (all-grade AE)", "setting": "Total N = 35", "value": "8 (22.9) n (%)"}, {"measurement": "Hypoalbuminaemia (all-grade AE)", "setting": "Total N = 35", "value": "9 (25.7) n (%)"}, {"measurement": "Hypokalaemia (all-grade AE)", "setting": "Total N = 35", "value": "4 (11.4) n (%)"}, {"measurement": "Hyponatraemia (all-grade AE)", "setting": "Total N = 35", "value": "5 (14.3) n (%)"}, {"measurement": "Insomnia (all-grade AE)", "setting": "Total N = 35", "value": "4 (11.4) n (%)"}, {"measurement": "Musculoskeletal chest pain (all-grade AE)", "setting": "Total N = 35", "value": "4 (11.4) n (%)"}, {"measurement": "Nausea (all-grade AE)", "setting": "Total N = 35", "value": "26 (74.3) n (%)"}, {"measurement": "Patients with any AE (all-grade AE)", "setting": "Total N = 35", "value": "35 (100.0) n (%)"}, {"measurement": "Platelet count decreased (all-grade AE)", "setting": "Total N = 35", "value": "9 (25.7) n (%)"}, {"measurement": "Pyrexia (all-grade AE)", "setting": "Total N = 35", "value": "6 (17.1) n (%)"}, {"measurement": "Thrombocytopenia (all-grade AE)", "setting": "Total N = 35", "value": "5 (14.3) n (%)"}, {"measurement": "Vomiting (all-grade AE)", "setting": "Total N = 35", "value": "19 (54.3) n (%)"}, {"measurement": "White blood cell count decreased (all-grade AE)", "setting": "Total N = 35", "value": "9 (25.7) n (%)"}, {"measurement": "Patients with DLTs", "setting": "all doses", "value": "Four"}, {"measurement": "AEs of grade ≥3, patients", "setting": "all doses, 35 patients", "value": 45.7, "unit": "%"}, {"measurement": "CTCAE grade ≥3 AEs causally related to AZD1208, patients", "setting": "all doses, 35 patients", "value": 28.6, "unit": "%"}, {"measurement": "CTCAE grade ≥3 GGT increase, patients", "setting": "all doses, 35 patients", "value": 8.6, "unit": "%"}, {"measurement": "CTCAE grade ≥3 abdominal pain, patients", "setting": "all doses, 35 patients", "value": 5.7, "unit": "%"}, {"measurement": "CTCAE grade ≥3 anaemia, patients", "setting": "all doses, 35 patients", "value": 5.7, "unit": "%"}, {"measurement": "CTCAE grade ≥3 fatigue, patients", "setting": "all doses, 35 patients", "value": 11.4, "unit": "%"}, {"measurement": "Diarrhoea causally related to AZD1208, patients", "setting": "all doses, 35 patients", "value": 68.6, "unit": "%"}, {"measurement": "Diarrhoea, patients", "setting": "all doses, 35 patients", "value": 82.9, "unit": "%"}, {"measurement": "Discontinued the study due to an AE, patients", "setting": "all doses, 35 patients", "value": 11.4, "unit": "%"}, {"measurement": "Dose interruptions because of AEs, patients", "setting": "all doses, 35 patients", "value": 45.7, "unit": "%"}, {"measurement": "Gastrointestinal disorders AEs, patients", "setting": "all doses, 35 patients", "value": 97.1, "unit": "%"}, {"measurement": "Nausea causally related to AZD1208, patients", "setting": "all doses, 35 patients", "value": 65.7, "unit": "%"}, {"measurement": "Nausea, patients", "setting": "all doses, 35 patients", "value": 74.3, "unit": "%"}, {"measurement": "Patients with ≥1 SAE", "setting": "all doses, 35 patients", "value": 22.9, "unit": "%"}, {"measurement": "SAE dyspnoea, patients", "setting": "all doses, 35 patients", "value": 5.7, "unit": "%"}, {"measurement": "SAE vomiting, patients", "setting": "all doses, 35 patients", "value": 5.7, "unit": "%"}, {"measurement": "Vomiting, patients", "setting": "all doses, 35 patients", "value": 54.3, "unit": "%"}, {"measurement": "Treatment-related changes in haematology, clinical chemistry, vital signs, ECG or physical findings", "setting": "any patient", "value": "No clinically significant treatment-related changes"}, {"measurement": "Patients who died as a result of an AE", "setting": "not considered AZD1208-related by the investigator", "value": 2.9, "unit": "%"}, {"measurement": "Patients reporting treatment-related SAEs", "setting": "one patient, three SAEs (vomiting, fatigue, general physical health deterioration)", "value": 2.9, "unit": "%"}, {"measurement": "Doses tolerated as monotherapy", "setting": "solid tumour study", "value": "up to 700 mg QD"}, {"measurement": "Maximum tolerated dose (MTD)", "setting": "solid tumour study", "value": "could not be determined"}]}
